Experimental data from US6069235A, “Method for carbohydrate engineering of glycoproteins” (Monsanto Company, priority 1994, dated 2000).

How the values were obtained:
[1] = target: T1, glucosidase I (Cricetulus griseus, UniProt A0A9J7K0I4); test: Endo H sensitivity of hsCD2 secreted by transfected CHO-K1 cells (line 2.14) cultured with NB-DNJ; format: cell-based, Chinese hamster
T1 construct: endogenous in cells; host or cells: CHO-K1, transfected line 2.14 (the transfected gene is hsCD2, not glucosidase I)
T1 sequence (A0A9J7K0I4 1-834): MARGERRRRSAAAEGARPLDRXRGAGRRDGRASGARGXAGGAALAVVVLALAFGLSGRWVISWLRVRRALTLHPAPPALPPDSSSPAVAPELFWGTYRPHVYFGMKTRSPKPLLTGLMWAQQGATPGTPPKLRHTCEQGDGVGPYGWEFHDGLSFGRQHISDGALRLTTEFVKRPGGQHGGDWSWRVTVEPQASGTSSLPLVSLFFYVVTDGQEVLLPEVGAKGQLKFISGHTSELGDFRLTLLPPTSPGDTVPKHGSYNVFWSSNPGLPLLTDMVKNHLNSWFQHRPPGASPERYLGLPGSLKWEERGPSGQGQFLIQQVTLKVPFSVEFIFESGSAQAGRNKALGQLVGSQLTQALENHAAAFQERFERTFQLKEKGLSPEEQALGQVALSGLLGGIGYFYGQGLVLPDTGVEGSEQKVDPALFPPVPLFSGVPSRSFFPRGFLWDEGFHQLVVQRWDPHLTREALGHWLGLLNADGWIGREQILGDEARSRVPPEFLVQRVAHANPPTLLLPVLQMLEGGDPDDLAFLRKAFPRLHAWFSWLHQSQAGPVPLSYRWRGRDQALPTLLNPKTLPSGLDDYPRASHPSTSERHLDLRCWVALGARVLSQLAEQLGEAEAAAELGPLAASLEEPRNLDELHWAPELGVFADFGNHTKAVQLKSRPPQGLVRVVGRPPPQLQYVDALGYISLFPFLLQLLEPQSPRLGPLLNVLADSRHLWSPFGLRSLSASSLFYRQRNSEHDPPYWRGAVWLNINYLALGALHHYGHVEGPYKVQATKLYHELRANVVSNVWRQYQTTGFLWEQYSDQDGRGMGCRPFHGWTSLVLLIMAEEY
Description: In initial optimization tests with NB-DNJ, 2×500 cm^2 flasks (Nunc) were seeded with line 2.14 cells in 75 ml glutamine-free medium GMEM-S (Gibco Ltd, Glasgow, U.K.) 10% Fetal Calf Serum (FCS) containing NB-DNJ at 0 mM, 0.5 mM, 1 mM, 1.5 mM or 2 mM. After 6 days 100 mls of CB2, 10% FCS containing sodium butyrate to give a final concentration of 2 mM and NB-DNJ at 0, 0.5 mM, 1 mM, 1.5 mM or 2 mM was added. Ten days after the addition of the butyrate, 0.5 ml samples of the supernatant were taken for comparison of secretion levels. The cultures were left for a total of 15 days before harvesting the supernatants. When large amounts of endo H treated hsCD2 were required for crystallization, the cells were grown to confluence in cell factories as described above and NB-DNJ was added with the sodium butyrate to a final concentration of 1.5 mM. These cultures were also left for a further 3-4 weeks prior to harvesting.
For analysis of endo H sensitivity after preparation of the hsCD2 in the presence of various concentrations of NB-DNJ, 10 μg aliquots of the purified glycoproteins were incubated with 4, 20 or 100 mU/ml endo H-(Boehringer Mannheim) in 30 μl of 100 mM sodium acetate, pH 5.2. One unit (U) of endo H is the enzyme activity which hydrolyzes one micromole […] of dansyl-Asn-(GlcNAc)2 -(Man)5 within one minute at 37° C., pH 5.5. After incubation overnight at 370 the digested samples were boiled in 1% SDS under reducing conditions prior to electrophoresis in 15% SDS-PAGE gels. For large-scale endo H treatment of hsCD2 for crystallization tests, 4 mgs of the purified glycoprotein was concentrated to 1-2 mg/ml in 0.1 M sodium acetate, pH 5.2, and then digested with 100 mU/ml endo H overnight at 370. […] The eluting protein was determined to be essentially free of contaminating hsCD2 bearing non-endo H sensitive oligosaccharides by SDS-PAGE on a 15% acrylamide gel. […]

[2] = tested on: CHO-K1 line 2.14 cells secreting hsCD2; test: Quantitative assay of hsCD2 expression level in line 2.14 cells cultured with NB-DNJ; format: cell-based, Chinese hamster; conditions: 0.5-2 mM NB-DNJ
Description: For the expression of hsCD2, the Xba I-Bam H1 fragment was sub-cloned into the polylinker of pEE6.hcmv-GS (Bebbington and Hentschel, 1987; Davis et al., 1990). The expression construct (20 μg) was transfected with calcium phosphate into CHO-K1 cells and methionine sulfoximine-resistant clones were selected as described previously (Davis et al., 1990). To detect expression the conventional solid-phase, radioactive inhibition binding assay (Barclay and Ward, 1982) was used. This utilized human sCD2 domain 1 expressed as a fusion protein as described for rat CD2 domain 1 (Driscoll et al., 1991) adsorbed onto vinyl microtitre plates as a binding target and monitored inhibition of the binding of the anti-human CD2 mAb, X3 mAb to the plate; the bound mAb was detected with [I^125 ]-labelled rabbit anti-mouse F(ab'). For large scale production the highest-expressing cell line (line 2.14) was grown to confluence in cell factories (Nunc) and sodium butyrate was then added to a final concentration of 2 mM. The cultures were then left for a further 3-4 weeks prior to harvesting.
In initial optimization tests with NB-DNJ, 2×500 cm^2 flasks (Nunc) were seeded with line 2.14 cells in 75 ml glutamine-free medium GMEM-S (Gibco Ltd, Glasgow, U.K.) 10% Fetal Calf Serum (FCS) containing NB-DNJ at 0 mM, 0.5 mM, 1 mM, 1.5 mM or 2 mM. […]

Compound: CCCCN1C[C@H](O)[C@@H](O)[C@H](O)[C@H]1CO [NB-DNJ, N-butyl deoxynojirimycin]
- oligosaccharides of hsCD2 converted to endo H sensitive structures ([1]; N-butyldeoxynojirimycin added to cultures of non-mutant CHO cells): > 85%
- inhibition of glucosidase I (judged by endo H sensitivity of hsCD2) ([1]; NB-DNJ 1.5 mM in culture of line 2.14 CHO cells): complete
- hsCD2 remaining endo H resistant (densitometric analysis of gel) ([1]; highest concentration of NB-DNJ (2 mM)): approximately 15%
- reduction in expression of hsCD2 [2]: three- to four-fold reduction in expression
